Experimental data: patent publication US8779154B2, “Fused ring compounds for inflammation and immune-related uses” (priority 2006, dated 2014)

Tested on: IL-2 production
Test: Inhibition of IL-2 production in PHA-activated Jurkat cells (ELISA)
Assay type: cell-based
Details: Homo sapiens, Jurkat, 20 h, PHA 2.5 μg/mL, IL-2 ELISA
Experimental: Jurkat cells were placed in a 96 well plate (0.5 million cells per well in 1% FBS medium) then a test compound of this invention was added at different concentrations. After 10 minutes, the cells were activated with PHA (final concentration 2.5 μg/mL) and incubated for 20 hours at 37° C. under CO2. The final volume was 200 μL. Following incubation, the cells were centrifuged and the supernatants collected and stored at −70° C. prior to assaying for IL-2 production. A commercial ELISA kit (IL-2 Eli-pair, Diaclone Research, Besancon, France) was used to detect production of IL-2, from which dose response curves were obtained. The IC50 value was calculated as the concentration at which 50% of maximum IL-2 production after stimulation was inhibited versus a non-stimulation control.

Compound | IC50 [µM]
Cn1cc(-c2ccc3c(c2)-c2sc(C(=O)Nc4c(F)cccc4F)nc2CCC3)cn1 [Compound 127] | ≤ 0.03
O=C(Nc1nc2c(s1)-c1cccc(-c3nccs3)c1CCC2)c1c(F)cccc1F [Compound 70] | 0.1 to 0.25
O=C(Nc1c(F)cccc1F)c1nc2c(s1)-c1cc(-c3cnc[nH]3)ccc1CCC2 [Compound 131] | 0.5 to 1
O=C(Nc1nc2c(s1)-c1ccc(I)cc1CCC2)c1c(F)cccc1F [Compound 72] | 0.03 to 0.1
O=C(Nc1c(F)cccc1F)c1ccc2c(c1)CCCc1cnc(-c3cccnc3)nc1-2 [Compound 142] | 0.1 to 0.25
O=C(Nc1nc2c(s1)-c1ccc(-n3ccnc3)cc1CCC2)c1c(F)cccc1F [Compound 74] | 0.1 to 0.25
O=C(Nc1c(F)cccc1F)c1nc2c(s1)-c1cc(-c3nccs3)ccc1CCC2 [Compound 34] | ≤ 0.03
N=C(Nc1c(F)cccc1F)c1nc2c(s1)-c1cc(-c3cnco3)ccc1CCC2 [Compound 153] | 0.25 to 0.5
O=C1NCc2ccc(Br)cc2-c2sc(NC(=O)c3c(F)cccc3F)nc21 [Compound 136] | > 1
O=C(Nc1c(F)cccc1F)c1nc2c(s1)-c1cc(-c3ccncc3)ccc1CCC2 [Compound 125] | 0.03 to 0.1
CN1Cc2ccc(Br)cc2-c2sc(NC(=O)c3c(F)cccc3F)nc2C1=O [Compound 135] | > 1
C/N=C(/Nc1c(F)cccc1F)c1nc2c(s1)-c1cc(OC)ccc1CCC2 [Compound 145] | > 1
COc1ccc2c(c1)-c1cnc(NC(=O)c3c(F)cccc3F)nc1CCO2 [Compound 94] | > 1
O=c1oc2ccc(C(F)(F)F)cc2c2sc(NCc3c(F)cccc3F)nc12 [Compound 7] | > 1
O=C(Nc1c(F)cccc1F)c1nc2c(s1)-c1cc(O)ccc1CCC2 [Compound 32] | 0.03 to 0.1
O=C(Nc1ccc2c(c1)CCCc1cnc(C3CC3)nc1-2)c1c(F)cccc1F [Compound 110] | 0.25 to 0.5
N#Cc1ccc2c(c1)CCCc1nc(NC(=O)c3c(F)cccc3F)sc1-2 [Compound 59] | 0.03 to 0.1
O=C(Nc1nc2c(=O)oc3ccc(C(F)(F)F)cc3c2s1)c1c(F)cccc1F [Compound 1] | > 1
CCOC(=O)N(C(=O)c1nc2c(s1)-c1cc(OC)ccc1CCC2)c1c(F)cccc1F [Compound 143] | 0.1 to 0.25
COc1ccc2c(c1)-c1sc(NC(=O)c3c(F)cccc3F)nc1CCC2 [Compound 8] | 0.03 to 0.1
COc1cccc2c1CCCc1nc(NC(=O)c3ccncc3F)sc1-2 [Compound 14] | 0.1 to 0.25
